Results reported in patent publication US6541497B1, “Hypoglycemic and hypolipidemic compounds” (Eli Lilly and Company, priority 1996, dated 2003).

Columns and labels:
[1] = tested on: Male obese-diabetic viable yellow (A^vy) mice; experiment: Serum/blood glucose after 14 days of feeding compound admixed in chow; type: in vivo
Method: (§1) Male obese-diabetic viable yellow (A^vy) mice were divided into two groups of 6 each. One group was fed repelletized Purina 5008 Chow and the second group was fed a repelletized chow consisting of Purina 5008 Chow, admixed with varying doses of the candidate compound. Blood samples were taken before the experiment was initiated and 14 days after initiation. Body weight and food consumption were monitored. The blood glucose level after 14 days of treatment was measured and recorded as a percent of the initial value, compared to the untreated control (first) group. The results are presented in the table below and include the dose of the candidate compound as a weight percent of the amount incorporated into the diet. The positive control is a known hypoglycemic agent (J. Med. Chem. 35:2617, 1992) administered in the same way as a compound of the present invention.

[2] = tested on: Male obese-diabetic viable yellow (A^vy) mice; experiment: Serum/plasma triglycerides after 14 days in the same feeding study; type: in vivo; conditions: untreated about 4 mmol/mL
Method: as §1
In the same feeding study described above, plasma triglycerides were measured against a glycerol standard using reagents from Sigma Kit No. 339 (St. Louis, Mo.), adapted for assay on the Monarch System (Instrumentation Laboratory, Lexington, Mass.). Day 14 levels are recorded below as mM of triglycerides per mL. Serum triglyceride values for untreated animals averaged about 4 mmol/mL.

[3] = dose 0.03 (mg/100 g food) in diet
[4] = dose 0.01 (mg/100 g food) in diet

Row | Compound | melting point | Serum Glucose after 14 days % of day 0 value [1, 3] | Serum Triglyceride after 14 days [2, 3] [mM] | other results
1 | O=C(N[C@@H](Cc1ccc(OCCc2coc(-c3ccccc3)n2)cc1)C(=O)O)OCc1ccccc1 [Example No. 1, O-[2-(2-Phenyl-4-oxazolyl)ethyl]-N-CBZ-L-tyrosine] | 105 to 111 °C | 49 % of day 0 value | 1.3 | –
2 | COc1ccc(COC(=O)N[C@@H](Cc2ccc(OCCc3coc(-c4ccccc4)n3)cc2)C(=O)O)cc1 [Example 18, O-[2-(2-Phenyl-4-oxazolyl)ethyl]-N-(4-methoxybenzyloxycarbonyl)-L-tyrosine] | 132.5 to 135.5 °C | – | – | –
3 | 4-[2-(2-Phenyl-4-oxazolyl)ethoxy]benzyl-N-CBZ-L-serine [Example No. 7] | – | 34 % of day 0 value | 0.4 | –
4 | O=C(NC(Cc1cccc(OCCc2coc(-c3ccccc3)n2)c1)C(=O)O)OCc1ccccc1 (stereo not drawn) [Example No. 21, α-(3-[2-(2-Phenyl-4-oxazolyl)ethoxy]benzyl)-N-CBZ glycine] | 149 to 151 °C (dec.) | 48 % of day 0 value | 1.4 | –
5 | O=C(COc1ccccc1)N[C@@H](Cc1ccc(OCCc2coc(-c3ccccc3)n2)cc1)C(=O)O [Example 12, O-[2-(2-Phenyl-4-oxazolyl)ethyl]-N-phenoxyacetyl-L-tyrosine] | 94 to 97 °C | – | – | –
6 | CC(C)(Oc1ccc(Cl)cc1)C(=O)O [clofibric acid, reference compound] | – | – | – | Serum Triglyceride after 14 days ([2]; dose 0.10 (mg/100 g food) in diet): 1.9 mM
7 | CN(C(=O)OCc1ccccc1)[C@@H](Cc1ccc(OCCc2coc(-c3ccccc3)n2)cc1)C(=O)O [Example No. 8, O-[2-(2-Phenyl-4-oxazolyl)ethyl]-N-methyl-N-CBZ-L-tyrosine] | – | – | 3.6 | Serum Glucose after 14 days % of day 0 value ([1]; dose 0.06 (mg/100 g food) in diet): 75 % of day 0 value
8 | NC(=O)[C@H](Cc1ccc(OCCc2coc(-c3ccccc3)n2)cc1)NC(=O)OCc1ccccc1 [Example No. 10, O-[2-(2-Phenyl-4-oxazolyl)ethyl]-N-CBZ-L-tyrosine carboxamide] | – | 88 % of day 0 value | – | –
9 | O=C(N[C@@H](Cc1ccc(OCCc2coc(-c3ccccc3)n2)cc1)C(=O)O)c1ccccc1 [Example No. 4, O-[2-(2-Phenyl-4-oxazolyl)ethyl]-N-BZ-L-tyrosine] | – | 60 % of day 0 value | 1.5 | –
10 | O=C(N[C@@H](Cc1ccc(OCCc2coc(-c3ccccc3)n2)cc1)C(=O)O)OCc1ccc(Br)cc1 [Example 16, O-[2-(2-Phenyl-4-oxazolyl)ethyl]-N-(4-bromobenzyloxycarbonyl)-L-tyrosine] | 173 to 176 °C | – | – | –
11 | O=C(O)[C@H](Cc1ccc(OCCc2coc(-c3ccccc3)n2)cc1)NS(=O)(=O)Cc1ccccc1 [Example 14, O-[2-(2-Phenyl-4-oxazolyl)ethyl]-N-phenylmethylsulfonyl-L-tyrosine] | 141 to 143 °C | – | – | –

More lines, main results first:

Row | melting point | Compound | Serum Glucose after 14 days % of day 0 value [1, 3] | Serum Triglyceride after 14 days [2, 3] [mM] | other results
12 | 196.5 to 198 °C | O=C(NCc1ccccc1)N[C@@H](Cc1ccc(OCCc2coc(-c3ccccc3)n2)cc1)C(=O)O [Example 20, O-[2-(2-Phenyl-4-oxazolyl)ethyl]-N-(N′-Benzylcarbamoyl)-L-tyrosine] | – | – | –
13 | 204 to 207 °C | O=C(N[C@@H](Cc1ccc(OCCc2coc(-c3ccccc3)n2)cc1)C(=O)[O-])OCc1ccccc1.[Na+] [Example No. 2, O-[2-(2-Phenyl-4-oxazolyl)ethyl]-N-CBZ-L-tyrosine, sodium salt] | 67 % of day 0 value | 3.3 | –
14 | 142 to 143 °C | Cc1oc(-c2ccccc2)nc1CCOc1ccc(CC(NC(=O)OCc2ccccc2)C(=O)O)cc1 (racemic) [Example No. 9, O-[2-(5-Methyl-2-phenyl-4-oxazolyl)ethyl]-N-CBZ-D,L-tyrosine] | 66 % of day 0 value | 2.5 | –
15 | 231 to 235 °C | N[C@@H](Cc1ccc(OCCc2coc(-c3ccccc3)n2)cc1)C(=O)O [Example 3, O-[2-(2-Phenyl-4-oxazolyl)ethyl]-L-tyrosine] | – | – | –
16 | 75 to 95 °C | Cc1oc(-c2ccccc2)nc1CCOc1ccc(C[C@H](NC(=O)OCc2ccccc2)C(=O)O)cc1 [Example No. 22, O-[2-(5-Methyl-2-phenyl-4-oxazolyl)ethyl]-N-CBZ-L-tyrosine] | 53 % of day 0 value | – | –
17 | 86 to 89 °C | CCCCc1ccc(COC(=O)N[C@@H](Cc2ccc(OCCc3coc(-c4ccccc4)n3)cc2)C(=O)O)cc1 [Example 19, O-[2-(2-Phenyl-4-oxazolyl)ethyl]-N-(4-n-Butylbenzyloxycarbonyl)-L-tyrosine] | – | – | –
18 | 158 to 161 °C | O=C(N[C@@H](Cc1ccc(OCCc2coc(-c3ccccc3)n2)cc1)C(=O)O)c1ccc(Cl)cc1 [Example 13, O-[2-(2-Phenyl-4-oxazolyl)ethyl]-N-4-chlorobenzoyl-L-tyrosine] | – | – | –
19 | 80 to 83 °C | O=C(N[C@@H](Cc1ccc(OCCc2cccc3ccccc23)cc1)C(=O)O)OCc1ccccc1 [Example 15, O-[2-(1-Naphthyl)ethyl]-N-CBZ-L-tyrosine] | – | – | –
20 | 180 to 182 °C | Cc1ccc(C(=O)N[C@@H](Cc2ccc(OCCc3coc(-c4ccccc4)n3)cc2)C(=O)O)cc1 [Example No. 6, O-[2-(2-Phenyl-4-oxazolyl)ethyl]-N-4-methylbenzoyl-L-tyrosine] | 65 % of day 0 value | 2.3 | –
21 | 55 to 57 °C | O=C(N[C@@H](COCc1cccc(OCCc2coc(-c3ccccc3)n2)c1)C(=O)O)OCc1ccccc1 [Example No. 24, O-(3-(2-(2-Phenyl-4-oxazolyl)ethoxy]benzyl)-N-CBZ serine] | – | – | Serum Glucose after 14 days % of day 0 value [1, 4]: 88 % of day 0 value; Serum Triglyceride after 14 days [2, 4]: 0.3 mM
22 | 146 to 151 °C | O=C(Cc1ccccc1)N[C@@H](Cc1ccc(OCCc2coc(-c3ccccc3)n2)cc1)C(=O)O [Example No. 5, O-[2-(2-Phenyl-4-oxazolyl)ethyl]-N-phenylacetyl-L-tyrosine] | 57 % of day 0 value | – | –
23 | 177 to 180.5 °C | O=C(N[C@@H](Cc1ccc(OCCc2coc(-c3ccccc3)n2)cc1)C(=O)O)OCc1ccc(C(F)(F)F)cc1 [Example 17, O-[2-(2-Phenyl-4-oxazolyl)ethyl]-N-(4-trifluoromethylbenzyloxycarbonyl)-L-Tyrosine] | – | – | –
24 | 198 to 199 °C | N[C@@H](Cc1ccc(OCCc2coc(-c3ccccc3)n2)cc1)C(=O)N(O)C(=O)OCc1ccccc1 [Example 11, O-[2-(2-Phenyl-4-oxazolyl)ethyl]-N-CBZ-L-tyrosine hydroxamic acid] | – | – | –
